Measurements from patent publication US9676758B2, “1-heteroaryl-indoline-4-carboxamides as modulators of GPR52 useful for the treatment or prevention of disorders related thereto” (Arena Pharmaceuticals, Inc., priority 2015, dated 2017).

What was measured:
[1] = Brain penetration (plasma and brain exposure); format: in vivo, mouse; details: male C57BL6 mice, 60 minute time point
Method: Plasma and brain exposure were evaluated to determine the brain penetration of compounds described herein. Male C57BL6 mice were administered a single per oral (PO) dose of compound at 3 or 10 mg/kg (as a free base) formulated in 20% HPCD in 0.9% NaCl. Blood and brain samples were collected 60 minutes post-dose (n=3-6 animals). Blood was collected via cardiac puncture and stored on ice prior to the separation of plasma by centrifugation. Brains were extracted from the cranium and frozen on dry ice. Tissue samples were stored at approximately −80° C. prior to bioanalytical analysis.
Analyte plasma and brain concentrations were determined by LC/MS/MS.

male C57/BL6 mice = assay: Mouse basal locomotor activity; format: in vivo; details: po, 10 mg/kg P.O.
Method: To measure basal locomotor activity, male C57/BL6 mice (8-16 weeks) (Jackson Laboratories, Sacramento, Calif.) were transferred in home cages to the testing room approximately 60 minutes prior to testing. Approximately 15 minutes after arrival in the testing room, a dark cycle commenced, with lights turning off and infrared lights turning on for experimenter visibility. Thirty minutes after the lights were turned off, animals were individually weighed and administered either vehicle (20% hydroxypropyl-β-cyclodextrin) Compound 13 (1, 2, 5, 10, or 20 mg/kg P.O.), or another GPR52 agonist (10 mg/kg P.O.) and returned to home cages. Fifteen minutes later, mice were placed into locomotor cages and activity was recorded for 60 minutes.

recombinant GPR52 = molecular target: T1, recombinant GPR52 (Homo sapiens, UniProt Q9Y2T5); assay: HTRF cAMP assay for direct cAMP measurement; format: cell-based; details: mean EC50; CHO-K1 or HEK293 cells stably expressing recombinant GPR52
T1 construct: expressed in transfected cells
Method: HTRF cAMP assays were performed using commercially available assay kits according to the manufacturer's instructions (cAMP Dynamic 2 Assay Kit; #62AM4PEJ, Cisbio Bioassays, Bedford, Mass.). CHO-K1 or HEK293 cells stably expressing recombinant GPR52 were harvested and resuspended in assay buffer (PBS containing 0.5 mM IBMX and 0.1% BSA) at a density of 1.2×10^6 cells per mL. […] Test compounds were solubilized and serially diluted in DMSO using 5-fold dilutions to generate 10-point dose response curves. These serially diluted samples were then further diluted in PBS to achieve a 2× stock. The diluted compounds were transferred to triplicate assay plates (5 μL per well to achieve the 1× final assay concentration). A positive control was included in each assay run. After one-hour incubation at room temperature, 5 μL of cAMP D2 reagent diluted in lysis buffer was added to each well, followed by 5 μL of cryptate reagent. Plates were then incubated at room temperature for one hour prior to reading. Time-resolved fluorescence measurements were collected on an HTRF-capable plate reader (e.g., EnVision® (PerkinElmer, Waltham, Mass.) or PHERAstar (BMG LABTECH, Cary, N.C.)). Counts from the plate reader were fit to the cAMP standard curve included on each plate to determine the amount of cAMP in each test well. Dose-response curves were generated from the cAMP data and analyzed using a nonlinear least squares curve-fitting program to obtain EC50 values.

T1 sequence (Q9Y2T5 whole entry): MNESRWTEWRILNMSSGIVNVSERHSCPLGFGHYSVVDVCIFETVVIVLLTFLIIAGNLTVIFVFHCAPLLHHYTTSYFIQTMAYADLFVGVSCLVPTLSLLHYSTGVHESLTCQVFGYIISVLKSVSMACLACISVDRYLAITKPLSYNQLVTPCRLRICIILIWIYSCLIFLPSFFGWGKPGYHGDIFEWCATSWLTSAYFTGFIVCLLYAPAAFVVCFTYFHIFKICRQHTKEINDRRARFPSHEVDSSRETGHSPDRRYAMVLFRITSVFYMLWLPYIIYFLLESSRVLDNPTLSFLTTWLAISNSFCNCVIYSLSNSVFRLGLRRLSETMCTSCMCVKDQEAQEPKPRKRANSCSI

| Brain/Plasma Ratio ([1]; PO dose 10 mg/kg) | EC50 (recombinant GPR52) [nM] | Brain/Plasma Ratio ([1]; PO dose 3 mg/kg) | SMILES | inhibition at 10 mg/kg (male C57/BL6 mice) [%] |
| --- | --- | --- | --- | --- |
| 1.67 | – | – | O=C(NCCO)c1c(F)ccc2c1CCN2c1cc(Cc2cccc(C(F)(F)F)c2)ccn1 [Compound 108, 5-Fluoro-N-(2-hydroxyethyl)-1-(4-(3-(trifluoromethyl)benzyl)pyridin-2-yl)indoline-4-carboxamide] | – |
| 0.16 | – | – | O=C(NC1CCN(CCO)CC1)c1cccc2c1CCN2c1cc(Cc2ccc3c(c2)CCO3)ccn1 [Compound 79, 1-(4-((2,3-Dihydrobenzofuran-5-yl)methyl)pyridin-2-yl)-N-(1-(2-hydroxyethyl)piperidin-4-yl)indoline-4-carboxamide] | – |
| – | – | – | COc1ccc(Cc2ccnc(N3CCc4c(C(=O)NC[C@@H](F)CO)cccc43)c2)cc1F [Compound 202, (R)—N-(2-Fluoro-3-hydroxypropyl)-1-(4-(3-fluoro-4-methoxybenzyl)pyridin-2-yl)indoline-4-carboxamide] | 67 |
| 5.45 | 9.76 | – | O=C(NCCO)c1cccc2c1CCN2c1cc(Cc2cc(F)cc(Cl)c2)ccn1 [Compound 43, 1-(4-(3-Chloro-5-fluorobenzyl)pyridin-2-yl)-N-(2-hydroxyethyl)indoline-4-carboxamide] | 79 |
| – | – | – | NC(=O)c1cccc2c1CCN2c1cc(Cc2ccc(F)c(C(F)(F)F)c2)ccn1 [Compound 61, 1-(4-(4-Fluoro-3-(trifluoromethyl)benzyl)pyridin-2-yl)indoline-4-carboxamide] | 61 |
| – | – | – | C[C@@H](O)CNC(=O)c1cccc2c1CCN2c1cc(Cc2cc(F)c(F)c(F)c2)ccn1 [Compound 179, (R)—N-(2-Hydroxypropyl)-1-(4-(3,4,5-trifluorobenzyl)pyridin-2-yl)indoline-4-carboxamide] | 68 |
| 1.36 | 11.2 | – | CC(=O)c1cccc(Cc2ccnc(N3CCc4c(C(N)=O)cccc43)c2)c1 [Compound 78, 1-(4-(3-Acetylbenzyl)pyridin-2-yl)indoline-4-carboxamide] | 72 |
| 7.76 | – | – | NC(=O)c1cccc2c1CCN2c1cc(Cc2ccc(F)c(Cl)c2)ccn1 [Compound 58, 1-(4-(3-Chloro-4-fluorobenzyl)pyridin-2-yl)indoline-4-carboxamide] | – |
| 2.85 | 12.2 | – | O=C(NC[C@@H](F)CO)c1cccc2c1CCN2c1cc(Cc2cc(F)c(F)c(F)c2)ccn1 [Compound 166, (R)—N-(2-Fluoro-3-hydroxypropyl)-1-(4-(3,4,5-trifluorobenzyl)pyridin-2-yl)indoline-4-carboxamide] | 70 |
| – | – | 4.49 | NC(=O)c1cccc2c1CCN2c1cc(Cc2cccc(C(F)(F)F)c2)ccn1 [Compound 5, 1-(4-(3-(Trifluoromethyl)benzyl)pyridin-2-yl)indoline-4-carboxamide] | – |
| 6.32 | 5.57 | – | COc1ccc(Cc2ccnc(N3CCc4c(C(N)=O)cccc43)c2)cc1F [Compound 54, 1-(4-(3-Fluoro-4-methoxybenzyl)pyridin-2-yl)indoline-4-carboxamide] | 66 |
| 0.87 | 3.11 | – | COc1ccc(Cc2ccnc(N3CCc4c(C(=O)NCCO)cccc43)c2)cc1F [Compound 69, 1-(4-(3-Fluoro-4-methoxybenzyl)pyridin-2-yl)-N-(2-hydroxyethyl)indoline-4-carboxamide] | – |
| – | – | – | NC(=O)c1cccc2c1CCN2c1cc(Cc2ccc3occc3c2)ccn1 [Compound 106, 1-(4-(Benzofuran-5-ylmethyl)pyridin-2-yl)indoline-4-carboxamide] | 81 |
| 4.67 | – | – | NC(=O)c1cccc2c1CCN2c1cc(Cc2cncc(C(F)(F)F)c2)ccn1 [Compound 47, 1-(4-((5-(Trifluoromethyl)pyridin-3-yl)methyl)pyridin-2-yl)indoline-4-carboxamide] | – |
| – | – | – | COC[C@@H](O)CNC(=O)c1cccc2c1CCN2c1cc(Cc2cc(F)c(F)c(F)c2)ccn1 [Compound 138, (S)—N-(2-Hydroxy-3-methoxypropyl)-1-(4-(3,4,5-trifluorobenzyl)pyridin-2-yl)indoline-4-carboxamide] | 72 |
| 12.40 | – | – | NC(=O)c1cccc2c1CCN2c1cc(Cc2cc(F)cc(Cl)c2)ccn1 [Compound 42, 1-(4-(3-Chloro-5-fluorobenzyl)pyridin-2-yl)indoline-4-carboxamide] | – |
| 3.00 | 8.87 | – | O=C(NCCO)c1cccc2c1CCN2c1cc(Cc2cc(F)c(F)c(F)c2)ccn1 [Compound 92, N-(2-Hydroxyethyl)-1-(4-(3,4,5-trifluorobenzyl)pyridin-2-yl)indoline-4-carboxamide] | 65 |
| – | 23.6 | – | Cn1cc(NC(=O)c2cccc3c2CCN3c2cc(Cc3cc(F)c(F)c(F)c3)ccn2)cn1 [Compound 117, N-(1-Methyl-1H-pyrazol-4-yl)-1-(4-(3,4,5-trifluorobenzyl)pyridin-2-yl)indoline-4-carboxamide] | – |
| – | 72 | – | O=C(NC[C@H](O)CO)c1cccc2c1CCN2c1cc(Cc2cc(F)cc(C(F)(F)F)c2)ccn1 [Compound 31, (S)-N-(2,3-Dihydroxypropyl)-1-(4-(3-fluoro-5-(trifluoromethyl)benzyl)pyridin-2-yl)indoline-4-carboxamide] | – |
| – | 292 | – | O=C(NC[C@H](O)C(F)(F)F)c1cccc2c1CCN2c1cc(Cc2cc(F)c(F)c(F)c2)ccn1 [Compound 160, (S)-N-(3,3,3-Trifluoro-2-hydroxypropyl)-1-(4-(3,4,5-trifluorobenzyl)pyridin-2-yl)indoline-4-carboxamide] | – |
| – | 3750 | – | CN(C)Cc1cccc(Cc2ccnc(N3CCc4c(C(N)=O)cccc43)c2)c1 [Compound 81, 1-(4-(3-((Dimethylamino)methyl)benzyl)pyridin-2-yl)indoline-4-carboxamide] | – |
| – | 18.2 | – | COc1ccc(Cc2ccnc(N3CCc4c3ccc(F)c4C(=O)NC[C@@H](F)CO)c2)cc1F [Compound 167, (R)-5-Fluoro-N-(2-fluoro-3-hydroxypropyl)-1-(4-(3-fluoro-4-methoxybenzyl)pyridin-2-yl)indoline-4-carboxamide] | 62 |
| – | 36.3 | – | N#CCCNC(=O)c1cccc2c1CCN2c1cc(Cc2cccc(C(F)(F)F)c2)ccn1 [Compound 20, N-(2-Cyanoethyl)-1-(4-(3-(trifluoromethyl)benzyl)pyridin-2-yl)indoline-4-carboxamide] | – |
| – | 12.9 | – | O=C(NCCO)c1cccc2c1CCN2c1ccnc(Cc2cc(F)cc(Cl)c2)c1 [Compound 187, 1-(2-(3-Chloro-5-fluorobenzyl)pyridin-4-yl)-N-(2-hydroxyethyl)indoline-4-carboxamide] | – |
| – | 30.1 | – | O=C(NCCO)c1c(F)ccc2c1CCN2c1cc(Cc2cc(F)c(F)c(F)c2)ccn1 [Compound 140, 5-Fluoro-N-(2-hydroxyethyl)-1-(4-(3,4,5-trifluorobenzyl)pyridin-2-yl)indoline-4-carboxamide] | 68 |
